Source: patent US11459312B2, “Sulphur substituted 3-oxo-2,3-dihydropyridazine-4-carboxamides” (Bayer Aktiengesellschaft, priority 2017, dated 2022)

Columns and labels:
[1] = biological target: T1, AHR (Homo sapiens, UniProt P35869); experiment: In vitro assay 3: AHR-regulated CYP1A1 expression in human cell line (U937, quantitative PCR); assay type: cell-based; conditions: human monocytic U937 cells, CYP1A1 expression induced with 200 μM KA, 6 hours, qPCR; read-out: Assay 3: Hum CYP1A1 Antagonism IC50
T1 sequence (P35869 11-848): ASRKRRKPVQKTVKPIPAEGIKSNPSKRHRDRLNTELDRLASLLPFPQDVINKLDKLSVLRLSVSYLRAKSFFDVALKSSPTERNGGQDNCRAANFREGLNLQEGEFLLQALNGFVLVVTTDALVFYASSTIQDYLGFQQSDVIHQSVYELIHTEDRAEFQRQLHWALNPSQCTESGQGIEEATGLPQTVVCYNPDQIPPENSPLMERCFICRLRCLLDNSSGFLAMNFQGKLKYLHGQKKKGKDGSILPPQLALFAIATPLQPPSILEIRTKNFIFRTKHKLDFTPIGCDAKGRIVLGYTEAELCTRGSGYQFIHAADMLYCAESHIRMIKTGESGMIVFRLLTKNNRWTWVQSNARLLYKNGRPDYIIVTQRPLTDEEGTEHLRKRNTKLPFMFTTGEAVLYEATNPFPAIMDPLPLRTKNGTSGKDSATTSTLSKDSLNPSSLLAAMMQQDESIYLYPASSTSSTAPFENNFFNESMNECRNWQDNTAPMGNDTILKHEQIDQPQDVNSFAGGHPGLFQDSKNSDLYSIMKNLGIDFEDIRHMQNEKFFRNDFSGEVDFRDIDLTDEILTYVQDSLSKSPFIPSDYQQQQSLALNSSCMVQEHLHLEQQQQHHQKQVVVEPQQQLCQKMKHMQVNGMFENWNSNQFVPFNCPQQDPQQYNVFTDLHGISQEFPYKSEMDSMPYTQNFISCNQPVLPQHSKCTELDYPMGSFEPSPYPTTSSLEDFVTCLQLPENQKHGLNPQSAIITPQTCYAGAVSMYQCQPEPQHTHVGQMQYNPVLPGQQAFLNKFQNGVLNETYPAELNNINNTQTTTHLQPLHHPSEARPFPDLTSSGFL
Description: In Vitro Assay 3: AHR-Regulated CYP1A1 Expression in Human Cell Line
To assess the AHR inhibitory activity of the substances described in this application, the ability thereof to antagonize ligand-induced AHR gene regulation in a dose-dependent manner was quantified. For this purpose, quantitative PCR analysis was used to determine expression of the AHR-regulated gene CYP1A1 in a human monocytic U937 cell line upon stimulation with 200 μM KA in the presence and absence of AHR inhibitor. U937 cells were sown at a concentration of 2×10^5 cells/well in 100 μl of growth medium (RPMI 1640, 20% FCS) in 96-well microtitre plates. CYP1A1 expression was induced with 200 μM KA (positive control) in the presence or absence of the substances for 6 hours. Human U937 cells were typically incubated with eight different concentrations of the substances (1 nM, 3 nM, 10 nM, 30 nM, 100 nM, 300 nM, 1 μM and 3 μM) and analyzed in duplicate on the same microtitre plate. After stimulation, cells were lysed with Nucleic Acid Lysis Solution (#4305895, Applied Biosystems) and RNA was isolated using the 6100 Nucleic Acid Preparation Station (Applied Biosystems) and reverse-transcribed to cDNA using SuperScript VILO cDNA synthesis kit (#11754-250, Invitrogen). Unstimulated cells were used as the negative control. Taqman probes for human CYP1A1 (Hs01054797_g1) and human HPRT (Hs02800695_m1) were used to analyze fold expression of CYP1A1 of HPRT. Quantitation was performed on a Taqman SDS7900HT.

[2] = biological target: T1, AHR; experiment: In vitro assay 1: AHR-luc transactivation assay, antagonism in human cell line (U87 glioblastoma cells, kynurenic acid prestimulated); assay type: cell-based; set-up: U87 glioblastoma cells (ATCC) endogenously expressing AHR; host or cells: U87 glioblastoma cells, stably transfected with DRE-firefly luciferase and renilla reporter constructs only; conditions: firefly luciferase DRE reporter, 150 μM kynurenic acid, 20 hours, read-out: Assay 1: AHR-luc Hum Antagonism IC50
Description: Transactivation Assay in Human Cell Line (In Vitro Assays 1 and 2)
Transactivation assays were carried out in U87 glioblastoma cells (ATCC) endogenously expressing AHR. In addition the cells were stably transfected with an AHR inducible firefly luciferase reporter gene construct that carried AHR-binding sites (DRE) in its promoter and a renilla reporter gene construct with constitutively active promoter. Kynurenic acid is an endogenous AHR activating ligand and was used to prestimulate test cells prior to testing the antagonistic properties of compounds.
In Vitro Assay 1: Antagonism in Human Cell Line
Cells in medium (tryptophan free RPMI, 1% FCS, 2 mM Glutamine) supplemented with 150 μM kynurenic acid were grown for 20 hours in absence (negative control) or presence of increasing concentrations of test compounds (typical dilutions: […], 0.25 nmol/L, 0.89 nmol/L; 3.1 nmol/L, 11 nmol/L, 38 nmol/L, 130 nmol/L, 470 nmol/L, 1.6 μmol/L, 5.7 μmol/L and 20 μmol/L in duplicates). As positive inhibition control cells supplemented with 150 μM kynurenic acid were incubated in presence of 5 μM Staurosporin. Normalization was done by positive and negative controls.
Firefly luciferase and Renilla activity was determined by the DualGlo Luciferase Assay System (Promega, #2920). Renilla activity was used to assess toxic effects of compounds.

SMILES	IC50 [1] [nM]	IC50 [2] [nM]
O=C(N[C@H]1CS(=O)(=O)C[C@H]1O)c1cc(-c2ccc(Cl)cc2)nn(-c2cccc(F)c2)c1=O (racemic) [Example 55, 6-(4-Chlorophenyl)-2-(3-fluorophenyl)-N-[(cis)-4-hydroxy-1,1-dioxidotetrahydrothiophen-3-yl]-3-oxo-2,3-dihydropyridazine-4-carboxamide]	27	26.5
O=C(N[C@@H]1CS(=O)(=O)C[C@@H]1O)c1cc(-c2ccc(C(F)(F)F)cc2)nn(-c2cccc(F)c2)c1=O (relative stereo) [Example 13, 2-(3-fluorophenyl)-N-[(cis)-4-hydroxy-1,1-dioxidotetrahydro-thiophen-3-yl]-3-oxo-6-[4-(trifluoromethyl)phenyl]-2,3-dihydropyridazine-4-carboxamide]	18.6	5.65
O=C(N[C@@H]1CS(=O)(=O)C[C@@H]1O)c1cc(-c2ccc(C(F)(F)F)cc2)nn(-c2cccc(F)c2)c1=O (single isomer, unassigned) [Example 15, (−)-2-(3-fluorophenyl)-N-[(cis)-4-hydroxy-1,1-dioxidotetrahydro-thiophen-3-yl]-3-oxo-6-[4-(trifluoromethyl)phenyl]-2,3-dihydropyridazine-4-carboxamide]	36.9	17.7
C[C@@H](C[S+](C)[O-])NC(=O)c1cc(-c2ccc(C(F)(F)F)cc2)nn(-c2cnn(C)c2)c1=O (single isomer, unassigned) [Example 24]	7.56	7.54
N=S1(=O)C[C@H](O)[C@H](NC(=O)c2cc(-c3ccc(Cl)cc3)nn(-c3cccc(F)c3)c2=O)C1 (single isomer, unassigned) [Example 45, 6-(4-chlorophenyl)-2-(3-fluorophenyl)-N-[(cis)-4-hydroxy-1-imino-1-oxidotetrahydro-1H-1lambda4-thiophen-3-yl]-3-oxo-2,3-dihydropyridazine-4-carboxamide]	756	56.9
O=C(N[C@H]1CS(=O)(=O)C[C@H]1O)c1cc(-c2ccc(Cl)cc2)nn(-c2cccc(F)c2)c1=O (single isomer, unassigned) [Example 57, 6-(4-Chlorophenyl)-2-(3-fluorophenyl)-N-[(cis)-4-hydroxy-1,1-dioxidotetrahydrothiophen-3-yl]-3-oxo-2,3-di hydropyridazine-4-carboxamide]	17.1	5.77
C[C@@H](CS(C)(=O)=O)NC(=O)c1cc(-c2ccc(C(F)(F)F)cc2)nn(-c2cnn(C)c2)c1=O [Example 22, 2-(1-Methyl-1H-pyrazol-4-yl)-N-[(2S)-1-(methylsulfonyl)propan-2-yl]-3-oxo-6-[4-(trifluoromethyl)phenyl]-2,3-dihydropyridazine-4-carboxamide]		21.9
C[C@@H](CS(C)(=O)=NC(=O)C(F)(F)F)NC(=O)c1cc(-c2ccc(C(F)(F)F)cc2)nn(-c2cnn(C)c2)c1=O (stereo partly drawn) [Example 41, 2-(1-Methyl-1H-pyrazol-4-yl)-N-{(2S)-1-[S-methyl-N-(trifluoroacetyl)sulfonimidoyl]propan-2-yl}-3-oxo-6-[4-(trifluoromethyl)phenyl]-2,3-dihydropyridazine-4-carboxamide]		39.2
N=S1(=O)C[C@H](O)[C@H](NC(=O)c2cc(-c3ccc(Cl)cc3)nn(-c3cccc(F)c3)c2=O)C1 (stereo partly drawn) [Example 42, 6-(4-chlorophenyl)-2-(3-fluorophenyl)-N-[(cis)-4-hydroxy-1-imino-1-oxidotetrahydro-1H-1lambda4-thiophen-3-yl]-3-oxo-2,3-dihydropyridazine-4-carboxamide]		34.9
N=S1(=O)C[C@H](O)[C@H](NC(=O)c2cc(-c3ccc(Cl)cc3)nn(-c3cccc(F)c3)c2=O)C1 (stereo partly drawn) [Example 44, 6-(4-chlorophenyl)-2-(3-fluorophenyl)-N-[(cis)-4-hydroxy-1-imino-1-oxidotetrahydro-1H-1lambda4-thiophen-3-yl]-3-oxo-2,3-dihydropyridazine-4-carboxamide]		99.3
Cn1cc(-n2nc(-c3ccc(C(F)(F)F)cc3)cc(C(=O)N[C@@H]3CS(=N)(=O)C[C@@H]3O)c2=O)cn1 (stereo partly drawn) [Example 47, N-[(cis)-4-hydroxy-1-imino-1-oxidotetrahydro-1H-1lambda4-thiophen-3-yl]-2-(1-methyl-1H-pyrazol-4-yl)-3-oxo-6-[4-(trifluoromethyl)phenyl]-2,3-dihydropyridazine-4-carboxamide]		158
CSC[C@H](C)NC(=O)c1cc(-c2ccc(Cl)cc2)nn(-c2cnn(C)c2)c1=O [Example 48, 6-(4-Chlorophenyl)-2-(1-methyl-1H-pyrazol-4-yl)-N-[(2S)-1-(methylsulfanyl)propan-2-yl]-3-oxo-2,3-dihydropyridazine-4-carboxamide]	29.9	15.5
C[C@@H](C[S+](C)[O-])NC(=O)c1cc(-c2ccc(Cl)cc2)nn(-c2cnn(C)c2)c1=O (stereo partly drawn) [Example 49, 6-(4-Chlorophenyl)-2-(1-methyl-1H-pyrazol-4-yl)-N-[(2S)-1-(methylsulfinyl)propan-2-yl]-3-oxo-2,3-dihydropyridazine-4-carboxamide]		26.4
C[C@@H](CS(C)(=O)=O)NC(=O)c1cc(-c2ccc(Cl)cc2)nn(-c2cnn(C)c2)c1=O [Example 50, 6-(4-Chlorophenyl)-2-(1-methyl-1H-pyrazol-4-yl)-N-[(2S)-1-(methylsulfonyl)propan-2-yl]-3-oxo-2,3-di hydropyridazine-4-carboxamide]	43.7	30.5
C[S+]([O-])CCNC(=O)c1cc(-c2ccc(Cl)cc2)nn(-c2cccc(F)c2)c1=O (stereo not shown) [Example 51, 6-(4-Chlorophenyl)-2-(3-fluorophenyl)-N-[2-(methylsulfinyl)ethyl]-3-oxo-2,3-dihydropyridazine-4-carboxamide]		393
CS(=N)(=O)CCNC(=O)c1cc(-c2ccc(Cl)cc2)nn(-c2cccc(F)c2)c1=O (stereo not shown) [Example 52, 6-(4-Chlorophenyl)-2-(3-fluorophenyl)-N-[2-(S-methylsulfonimidoyl)ethyl]-3-oxo-2,3-dihydropyridazine-4-carboxamide]		700
CS(=O)(=O)CCNC(=O)c1cc(-c2ccc(Cl)cc2)nn(-c2cccc(F)c2)c1=O [Example 59, 6-(4-Chlorophenyl)-2-(3-fluorophenyl)-N-[2-(methylsulfonyl)ethyl]-3-oxo-2,3-dihydropyridazine-4-carboxamide]		326
